Tests used:
[1] = molecular target: T1, binding between PCSK9 and the LDL receptor (Homo sapiens, UniProt Q8NBP7); assay: In vitro PCSK9-LDLR binding assay (CircuLex kit)
T1 construct: purchased CircuLex
Procedure: Compounds were assayed for their ability to inhibit the binding between PCSK9 and the LDL receptor using a CircuLex PCSK9-LDLR in vitro binding assay kit. The procedure employed the reagents and buffers included in the kit as follows. 88 μL of 1× reaction buffer was placed into each well. 5 μL of test compound in 20% DMSO was added into each well. 10 mM solutions of test compounds in DMSO were diluted by 3-fold series to give 6-point concentration curves. The compounds were then diluted 20-fold with the reaction buffer. To each well was then added 7 μL of His-tagged PCSK9 wild type solution (1000 ng/mL). The plate was then covered with a plate sealer and incubated at room temperature for 3 hours, shaking at 300 rpm on an orbital microplate shaker. The test solutions were washed 4 times with 350 μL wash buffer. One 100 μL of biotinylated anti-His-tag monoclonal antibody was added to each well. The plate was covered with a plate sealer, and incubated at room temperature for 1 h, shaking at 300 rpm. The test solutions were washed 4 times with 350 μL wash buffer. […] of HRP-conjugated streptavidin was added to each well. The plate was covered with a plate sealer, and incubated at room temperature for 20 min, shaking at 300 rpm. The test solutions were washed 4 times with 350 μL wash buffer. 100 μL of substrate reagent was added into each well. The plate was covered with a plate sealer, and incubated at room temperature for 15 min, shaking at 300 rpm. Finally, 100 μL of stop solution was added to each well in the same order as the previously added substrate reagent.
The results of the binding assay are shown in FIG. 3, reported as IC50 (μM).

[2] = tested on: Caco-2 cells; assay: Caco2 assay; format: in vitro ADME, human; conditions: 10 μM, 90 min
Procedure: Caco-2 cells are a human colon epithelial cancer cell line used as a model of human intestinal absorption of drugs and other compounds. The compounds were assessed for their oral suitability in this assay, as compounds with good oral bioavailability likely evade efflux by pumps. The permeability coefficient (Papp) denotes the permeability of the drug through a monolayer of cells. Transport is assessed in both directions (apical to basolateral (A-B) and basolateral to apical (B-A)) across the cell monolayer to enable an efflux ratio to be determined which provides an indicator as to whether a compound undergoes active efflux.
Caco-2 cells were removed from an incubator and the cell monolayer was washed with HBSS buffer before the Transepithelial/transendothelial electrical resistance (TEER) was measured at room temperature. The transport experiment was started by adding 10 μM solution of test compounds in HBSS buffer containing luciferase yellow to the apical side. A sample from the apical chamber was taken at t=0 min. The volumes of the apical and basal sides were 400 μL and 800 μL respectively. The apical and basolateral plates were incubated at 37° C. for 90 min. After 90 min, the apical plate was separated from the basolateral plate and an aliquot from the basolateral side was transferred to an opaque plate for the determination of lucifer yellow concentration at t=90 min. The luciferase yellow concentration of each sample was measured by fluorimetry using excitation and emission wavelengths of 485 nm and 535 nm, respectively. Samples from the donor and receiver chambers were diluted with 0.4% DMSO in HBSS then mixed with ACN and either osalmid or imipramine, which were used as an IS in preparation for analysis by LC-MS/MS. Samples were then assayed for their levels of test compounds using an UPLC-MS/MS-29(API6500+) or an LC-MS/MS-014(API4000) instrument operating in a positive electrospray ionisation mode.

[3] = Cassette pharmacokinetic study, intravenous; format: in vivo, C57BL/6 mice; conditions: mice, route not given (IV study 0.4 mg/kg); for Vd: male, C57BL/6, mouse, plasma, read-out: VSS
Procedure: Cassette dosing is a technique primarily used in drug discovery efforts in non-clinical studies to collect pharmacokinetic data from multiple drug candidates in a single experiment.
C57BL/6 mice (21-22 g, 6-8 weeks, male, purchased from Jihui Laboratory Animal Co. LTD) were allowed access to food and water ad libitum throughout the in-life phase of the study. Mice were dosed intravenously (IV) with a cassette of 0.4 mg/kg of test compounds in 5% DMAC, 5% Solutol HS15 and 90% saline. At designated time points, the animals were restrained manually, and ˜110 μL of blood/time point was collected into pre-cooled EDTA-K2 tubes via the facial vein. Blood samples were centrifuged at 4° C. (2000 g, 5 min) to obtain plasma within 15 min after sample collection. Plasma samples were stored at approximately −70° C. until analysis. Samples were assayed for their levels of test compounds by LC/MS/MS using a Triple Quadruple (6500+) system operating in a positive electrospray ionisation mode.
The PK parameters of half-life (T1/2) and area under the curve (AUC) of the compounds were assessed following a single intravenous (IV) injection (0.4 mg/kg) in mice (male, C57BL/6).

[4] = molecular target: T2, CYP3A4 (Homo sapiens, UniProt P08684); assay: CYP inhibition assay, CYP3A4; format: in vitro ADME; conditions: probe Midazolam (5 μM), human liver microsomes
T2 construct: using human liver microsomes; from tissue; host or cells: human liver microsomes
T2 sequence (P08684 whole entry): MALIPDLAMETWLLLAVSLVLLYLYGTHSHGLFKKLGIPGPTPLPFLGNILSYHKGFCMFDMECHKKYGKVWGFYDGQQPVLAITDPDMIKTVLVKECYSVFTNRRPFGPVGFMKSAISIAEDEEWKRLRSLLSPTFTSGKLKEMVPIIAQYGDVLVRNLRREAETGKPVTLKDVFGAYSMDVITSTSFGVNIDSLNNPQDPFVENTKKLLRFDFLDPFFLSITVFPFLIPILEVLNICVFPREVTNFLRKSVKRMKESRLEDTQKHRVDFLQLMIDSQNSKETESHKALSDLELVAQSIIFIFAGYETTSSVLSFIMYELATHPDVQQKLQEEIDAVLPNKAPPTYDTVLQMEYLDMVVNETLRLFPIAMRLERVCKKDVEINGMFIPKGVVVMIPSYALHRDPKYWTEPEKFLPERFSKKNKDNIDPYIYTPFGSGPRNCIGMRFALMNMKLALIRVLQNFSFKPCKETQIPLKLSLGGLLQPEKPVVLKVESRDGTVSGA
Procedure: In vitro CYP (cytochrome P450) enzyme inhibition studies predict a drug candidate's predisposition to inhibit cytochrome P450 enzymes. The cytochrome P450 (CYP) inhibition assay was run against CYP2D6 and CYP3A4 isoforms using human liver microsomes. For CYP2D6, the probe substrates was Bufaralol (10 μM) and the positive control was Quinidine (2.5 μM). Midazolam (5 μM) was chosen as the probe substrate for CYP3A4 and Ketocanazole (2.5 μM) was used as the positive control inhibitor. To increase the throughput of the assay, one concentration (10 μM) was tested. For analysis via LC-MS, internal standards of 1-OH-Bufuralol-maleate-[D9] for CYP2D6 and 1′-OH-Midazolam-13C3 for CYP3A4 were used.

T1 sequence (Q8NBP7 153-692): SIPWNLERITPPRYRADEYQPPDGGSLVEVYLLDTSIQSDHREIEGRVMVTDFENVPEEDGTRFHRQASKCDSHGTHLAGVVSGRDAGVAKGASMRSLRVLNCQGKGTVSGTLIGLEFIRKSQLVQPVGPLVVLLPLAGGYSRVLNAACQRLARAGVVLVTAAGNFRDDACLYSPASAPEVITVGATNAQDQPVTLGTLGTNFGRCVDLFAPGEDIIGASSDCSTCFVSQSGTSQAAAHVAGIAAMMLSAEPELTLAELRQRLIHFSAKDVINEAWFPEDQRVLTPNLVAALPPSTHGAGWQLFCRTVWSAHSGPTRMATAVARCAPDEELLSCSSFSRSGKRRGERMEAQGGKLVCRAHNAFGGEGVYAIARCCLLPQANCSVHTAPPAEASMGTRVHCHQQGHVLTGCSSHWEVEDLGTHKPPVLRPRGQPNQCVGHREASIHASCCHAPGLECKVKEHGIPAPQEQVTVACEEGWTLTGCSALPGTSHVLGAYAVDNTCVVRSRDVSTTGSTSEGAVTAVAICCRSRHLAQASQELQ
T1 sequence (Q8NBP7 31-152 partner limits assumed): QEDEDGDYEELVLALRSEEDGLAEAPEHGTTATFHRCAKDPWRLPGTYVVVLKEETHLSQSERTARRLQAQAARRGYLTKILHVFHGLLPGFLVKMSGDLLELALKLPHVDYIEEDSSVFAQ

IC50 [1] [nM]	bioavailability indicated by the in vitro Caco2 study [2]	Vd [3] [L/kg]	inhibition at 10 µM [4] [%]	VSS [3] [L/kg]	Structure (SMILES)
279	good bioavailability	1.29	-15.4		Cc1ccc(-c2cc(CN3CCC(F)(F)[C@H](N)C3)cc(NC(=O)c3cc(-c4ccccc4)ccn3)c2)cn1 [Compound 122]
320	good bioavailability		74	14.7	Cc1cn(-c2cc(CN3CCC[C@H](N)C3)cc(NC(=O)c3cc(-c4ccccc4)ccn3)c2)cn1 [compound 29, (S)—N-(3-((3-aminopiperidin-1-yl)methyl)-5-(4-methyl-1H-imidazol-1-yl)phenyl)-4-phenylpicolinamide]
547	good bioavailability	3.25	0.68		Cc1cnc(C(=O)Nc2cc(CN3CCC(F)(F)[C@H](N)C3)cc(-c3ccc(C(F)(F)F)nc3)c2)cc1-c1ccccc1 [compound 131]
